From ChEMBL document CHEMBL4396937, “Synthesis of new triazole fused imidazo[2,1-b]thiazole hybrids with emphasis on Staphylococcus aureus virulence factors” (Bioorg Med Chem Lett, 2019)
Converted amounts (≈) assume the structure as drawn.

Assays:
Type in all cases: functional
Bacillus subtilis [1] = test: Antibacterial activity against Bacillus subtilis MTCC 121 assessed as reduction in bacterial growth incubated for 24 hrs by agar well diffusion method; settings: MTCC 121, 24 h
Staphylococcus aureus [2] = test: Antibacterial activity against Staphylococcus aureus MLS-16 MTCC 2940 assessed as reduction in bacterial growth incubated for 24 hrs by agar well diffusion method; settings: MLS-16 MTCC 2940, 24 h
Micrococcus luteus [3] = test: Antibacterial activity against Micrococcus luteus MTCC 2470 assessed as reduction in bacterial growth incubated for 24 hrs by agar well diffusion method; settings: MTCC 2470, 24 h
Staphylococcus aureus [4] = test: Antibacterial activity against Staphylococcus aureus MTCC 96 assessed as reduction in bacterial growth incubated for 24 hrs by agar well diffusion method; settings: MTCC 96, 24 h
Escherichia coli [5] = test: Antibacterial activity against Escherichia coli MTCC 739 assessed as reduction in bacterial growth incubated for 24 hrs by agar well diffusion method; settings: MTCC 739, 24 h
Pseudomonas aeruginosa [6] = test: Antibacterial activity against Pseudomonas aeruginosa MTCC 2453 assessed as reduction in bacterial growth incubated for 24 hrs by agar well diffusion method; settings: MTCC 2453, 24 h
Raoultella planticola [7] = test: Antibacterial activity against Klebsiella planticola MTCC 530 assessed as reduction in bacterial growth incubated for 24 hrs by agar well diffusion method; settings: MTCC 530, 24 h
Candida albicans [8] = test: Antifungal activity against Candida albicans MTCC 3017 assessed as reduction in fungal growth incubated for 24 hrs by agar well diffusion method; settings: MTCC 3017, 24 h
Bacillus subtilis [9] = test: Bactericidal activity against Bacillus subtilis MTCC 121 assessed as reduction in bacterial survival incubated for 24 hrs followed by transfer of microbial suspension to agar plates and measured at 24 hrs post transfer by agar well diffusion method; settings: MTCC 121, 24 h
Staphylococcus aureus [10] = test: Bactericidal activity against Staphylococcus aureus MLS-16 MTCC 2940 assessed as reduction in bacterial survival incubated for 24 hrs followed by transfer of microbial suspension to agar plates and measured at 24 hrs post transfer by agar well diffusion method; settings: MLS-16 MTCC 2940, 24 h
Micrococcus luteus [11] = test: Bactericidal activity against Micrococcus luteus MTCC 2470 assessed as reduction in bacterial survival incubated for 24 hrs followed by transfer of microbial suspension to agar plates and measured at 24 hrs post transfer by agar well diffusion method; settings: MTCC 2470, 24 h
Staphylococcus aureus [12] = test: Bactericidal activity against Staphylococcus aureus MTCC 96 assessed as reduction in bacterial survival incubated for 24 hrs followed by transfer of microbial suspension to agar plates and measured at 24 hrs post transfer by agar well diffusion method; settings: MTCC 96, 24 h
Escherichia coli [13] = test: Bactericidal activity against Escherichia coli MTCC 739 assessed as reduction in bacterial survival incubated for 24 hrs followed by transfer of microbial suspension to agar plates and measured at 24 hrs post transfer by agar well diffusion method; settings: MTCC 739, 24 h
Pseudomonas aeruginosa [14] = test: Bactericidal activity against Pseudomonas aeruginosa MTCC 2453 assessed as reduction in bacterial survival incubated for 24 hrs followed by transfer of microbial suspension to agar plates and measured at 24 hrs post transfer by agar well diffusion method; settings: MTCC 2453, 24 h
Raoultella planticola [15] = test: Bactericidal activity against Klebsiella planticola MTCC 530 assessed as reduction in bacterial survival incubated for 24 hrs followed by transfer of microbial suspension to agar plates and measured at 24 hrs post transfer by agar well diffusion method; settings: MTCC 530, 24 h
Candida albicans [16] = test: Fungicidal activity against Candida albicans MTCC 3017 assessed as reduction in fungal survival incubated for 24 hrs followed by transfer of microbial suspension to agar plates and measured at 24 hrs post transfer by agar well diffusion method; settings: MTCC 3017, 24 h

Row | Compound | MIC (Bacillus subtilis [1]) | MIC (Staphylococcus aureus [2]) | MIC (Micrococcus luteus [3]) | MIC (Staphylococcus aureus [4]) | MIC (Escherichia coli [5]) | MIC (Pseudomonas aeruginosa [6]) | MIC (Raoultella planticola [7]) | MIC (Candida albicans [8]) | MBC (Bacillus subtilis [9]) | MBC (Staphylococcus aureus [10]) | MBC (Micrococcus luteus [11]) | MBC (Staphylococcus aureus [12]) | MBC (Escherichia coli [13]) | MBC (Pseudomonas aeruginosa [14]) | MBC (Raoultella planticola [15]) | MFC (Candida albicans [16])
1 | COc1ccc(-c2nc3sccn3c2C(=O)c2cn(-c3ccc(Br)cc3)nn2)cc1 | 7.8 µg/mL (≈ 16.2 µM) | 7.8 µg/mL (≈ 16.2 µM) | 7.8 µg/mL (≈ 16.2 µM) | 3.9 µg/mL (≈ 8.12 µM) | > 125 µg/mL | > 125 µg/mL | 15.6 µg/mL (≈ 32.5 µM) | 7.8 µg/mL (≈ 16.2 µM) | 15.6 µg/mL (≈ 32.5 µM) | 15.6 µg/mL (≈ 32.5 µM) | 15.6 µg/mL (≈ 32.5 µM) | 7.8 µg/mL (≈ 16.2 µM) | > 125 µg/mL | > 125 µg/mL | 31.2 µg/mL (≈ 65 µM) | 15.6 µg/mL (≈ 32.5 µM)
2 | COc1ccc(-c2nc3sccn3c2C(=O)c2cn(-c3ccc(Cl)cc3)nn2)cc1 | 3.9 µg/mL (≈ 8.95 µM) | 7.8 µg/mL (≈ 17.9 µM) | 3.9 µg/mL (≈ 8.95 µM) | 3.9 µg/mL (≈ 8.95 µM) | > 125 µg/mL | > 125 µg/mL | > 125 µg/mL | 15.6 µg/mL (≈ 35.8 µM) | 7.8 µg/mL (≈ 17.9 µM) | 15.6 µg/mL (≈ 35.8 µM) | 7.8 µg/mL (≈ 17.9 µM) | 7.8 µg/mL (≈ 17.9 µM) | > 125 µg/mL | > 125 µg/mL | > 125 µg/mL | 31.2 µg/mL (≈ 71.6 µM)
3 | COc1ccc(-c2nc3sccn3c2C(=O)c2cn(-c3ccc(C(F)(F)F)cc3)nn2)cc1 | 15.6 µg/mL (≈ 33.2 µM) | 15.6 µg/mL (≈ 33.2 µM) | 7.8 µg/mL (≈ 16.6 µM) | 15.6 µg/mL (≈ 33.2 µM) | > 125 µg/mL | > 125 µg/mL | > 125 µg/mL | 7.8 µg/mL (≈ 16.6 µM) | 31.2 µg/mL (≈ 66.5 µM) | 31.2 µg/mL (≈ 66.5 µM) | 15.6 µg/mL (≈ 33.2 µM) | 31.2 µg/mL (≈ 66.5 µM) | > 125 µg/mL | > 125 µg/mL | > 125 µg/mL | 15.6 µg/mL (≈ 33.2 µM)
4 | COc1cc(-n2cc(C(=O)c3c(-c4ccccc4)nc4sccn34)nn2)cc(OC)c1OC | 3.9 µg/mL (≈ 8.45 µM) | 7.8 µg/mL (≈ 16.9 µM) | 3.9 µg/mL (≈ 8.45 µM) | 3.9 µg/mL (≈ 8.45 µM) | > 125 µg/mL | > 125 µg/mL | 31.2 µg/mL (≈ 67.6 µM) | 15.6 µg/mL (≈ 33.8 µM) | 7.8 µg/mL (≈ 16.9 µM) | 15.6 µg/mL (≈ 33.8 µM) | 7.8 µg/mL (≈ 16.9 µM) | 7.8 µg/mL (≈ 16.9 µM) | > 125 µg/mL | > 125 µg/mL | 62.5 µg/mL (≈ 135 µM) | 31.2 µg/mL (≈ 67.6 µM)
5 | COc1ccc(-c2nc3sccn3c2C(=O)c2cn(-c3ccc(OC)cc3)nn2)cc1 | 7.8 µg/mL (≈ 18.1 µM) | 7.8 µg/mL (≈ 18.1 µM) | 15.6 µg/mL (≈ 36.2 µM) | 15.6 µg/mL (≈ 36.2 µM) | > 125 µg/mL | > 125 µg/mL | 7.8 µg/mL (≈ 18.1 µM) | 15.6 µg/mL (≈ 36.2 µM) | 15.6 µg/mL (≈ 36.2 µM) | 15.6 µg/mL (≈ 36.2 µM) | 31.2 µg/mL (≈ 72.3 µM) | 31.2 µg/mL (≈ 72.3 µM) | > 125 µg/mL | > 125 µg/mL | 15.6 µg/mL (≈ 36.2 µM) | 31.2 µg/mL (≈ 72.3 µM)
6 | COc1cc(-n2cc(C(=O)c3c(-c4ccc(Cl)cc4)nc4sccn34)nn2)cc(OC)c1OC | 3.9 µg/mL (≈ 7.86 µM) | 7.8 µg/mL (≈ 15.7 µM) | 15.6 µg/mL (≈ 31.5 µM) | 7.8 µg/mL (≈ 15.7 µM) | > 125 µg/mL | > 125 µg/mL | > 125 µg/mL | 15.6 µg/mL (≈ 31.5 µM) | 7.8 µg/mL (≈ 15.7 µM) | 15.6 µg/mL (≈ 31.5 µM) | 31.2 µg/mL (≈ 62.9 µM) | 15.6 µg/mL (≈ 31.5 µM) | > 125 µg/mL | > 125 µg/mL | > 125 µg/mL | 31.2 µg/mL (≈ 62.9 µM)
7 | O=C(c1cn(-c2ccc(F)cc2)nn1)c1c(-c2ccccc2)nc2sccn12 | 7.8 µg/mL (≈ 20 µM) | > 125 µg/mL | > 125 µg/mL | > 125 µg/mL | > 125 µg/mL | > 125 µg/mL | > 125 µg/mL | 15.6 µg/mL (≈ 40.1 µM) | 15.6 µg/mL (≈ 40.1 µM) | > 125 µg/mL | > 125 µg/mL | > 125 µg/mL | > 125 µg/mL | > 125 µg/mL | > 125 µg/mL | 31.2 µg/mL (≈ 80.1 µM)
8 | COc1ccc(-n2cc(C(=O)c3c(-c4ccc(Cl)cc4)nc4sccn34)nn2)cc1 | 3.9 µg/mL (≈ 8.95 µM) | 7.8 µg/mL (≈ 17.9 µM) | 3.9 µg/mL (≈ 8.95 µM) | 3.9 µg/mL (≈ 8.95 µM) | > 125 µg/mL | > 125 µg/mL | 3.9 µg/mL (≈ 8.95 µM) | 7.8 µg/mL (≈ 17.9 µM) | 7.8 µg/mL (≈ 17.9 µM) | 15.6 µg/mL (≈ 35.8 µM) | 7.8 µg/mL (≈ 17.9 µM) | 7.8 µg/mL (≈ 17.9 µM) | > 125 µg/mL | > 125 µg/mL | 7.8 µg/mL (≈ 17.9 µM) | 15.6 µg/mL (≈ 35.8 µM)
